Experiments:
Type in all cases: biochemical
[1] = biological target: PAK1 (Homo sapiens, UniProt Q13153); test: In vitro PAK inhibition assay (SelectScreen, Ser/Thr 19 peptide)
Procedure, shortened: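 Kinase reaction ran in 50 mM HEPES pH 7.5, 0.01% BRIJ-35, 10 mM MgCl2, 1 mM EGTA with Ser/Thr 19 peptide for 60 min at room temperature, followed by 60 min protease development. Fluorescence gave percent phosphorylation. Compounds were tested as 10-point, 3-fold titrations in 1% DMSO final.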

[2] = biological target: PAK2 (PAK65) (Homo sapiens, UniProt Q13177); test: In vitro PAK inhibition assay (SelectScreen, Ser/Thr 20 peptide)
Procedure, shortened: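 FRET-based peptide cleavage assay: 0.29-6 ng PAK2 and 2 μM Ser/Thr 20 peptide in 50 mM HEPES pH 7.5, 10 mM MgCl2, 1 mM EGTA, 0.01% BRIJ-35, 1% DMSO final. Kinase reaction 60 min at room temperature, then 60 min development; 10-point 3-fold titrations, percent phosphorylation from fluorescence.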

[3] = biological target: PAK3 (Homo sapiens, UniProt O75914); test: as above
Procedure, shortened: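 PAK3 phosphorylation of Ser/Thr 20 peptide in 50 mM HEPES pH 7.5, 0.01% BRIJ-35, 10 mM MgCl2, 1 mM EGTA, 1% DMSO final; 60 min at room temperature, then 60 min development reaction with fluorescence read-out. 10-point 3-fold titrations; percent phosphorylation from 0% and 100% phosphopeptide controls.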

[4] = biological target: PAK4 (Homo sapiens, UniProt O96013); test: as above
Procedure, shortened: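 FRET-based Ser/Thr 20 peptide phosphorylation: 0.1-0.75 ng PAK4, 2 μM peptide in 50 mM HEPES pH 7.5, 10 mM MgCl2, 1 mM EGTA, 0.01% BRIJ-35, 1% DMSO; 60 min at room temperature, then 60 min protease development. 10-point 3-fold titrations; IC50 from sigmoidal fit.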

Chain of PAK3 (O75914 whole entry): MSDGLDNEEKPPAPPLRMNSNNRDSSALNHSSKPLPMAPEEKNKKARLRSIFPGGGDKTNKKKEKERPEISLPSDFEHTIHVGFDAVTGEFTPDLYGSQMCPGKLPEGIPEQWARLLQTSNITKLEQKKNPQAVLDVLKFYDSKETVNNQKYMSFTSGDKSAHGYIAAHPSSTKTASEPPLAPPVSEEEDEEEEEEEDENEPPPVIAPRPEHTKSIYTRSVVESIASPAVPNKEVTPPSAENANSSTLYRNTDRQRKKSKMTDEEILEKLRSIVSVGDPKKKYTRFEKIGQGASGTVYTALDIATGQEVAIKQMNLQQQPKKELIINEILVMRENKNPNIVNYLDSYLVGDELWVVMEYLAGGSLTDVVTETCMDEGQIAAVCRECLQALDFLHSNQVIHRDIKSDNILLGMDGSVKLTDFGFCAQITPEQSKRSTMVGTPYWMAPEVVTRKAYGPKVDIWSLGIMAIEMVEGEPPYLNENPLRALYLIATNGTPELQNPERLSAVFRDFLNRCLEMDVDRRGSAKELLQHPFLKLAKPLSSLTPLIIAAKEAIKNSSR
Chain of PAK1 (Q13153 whole entry): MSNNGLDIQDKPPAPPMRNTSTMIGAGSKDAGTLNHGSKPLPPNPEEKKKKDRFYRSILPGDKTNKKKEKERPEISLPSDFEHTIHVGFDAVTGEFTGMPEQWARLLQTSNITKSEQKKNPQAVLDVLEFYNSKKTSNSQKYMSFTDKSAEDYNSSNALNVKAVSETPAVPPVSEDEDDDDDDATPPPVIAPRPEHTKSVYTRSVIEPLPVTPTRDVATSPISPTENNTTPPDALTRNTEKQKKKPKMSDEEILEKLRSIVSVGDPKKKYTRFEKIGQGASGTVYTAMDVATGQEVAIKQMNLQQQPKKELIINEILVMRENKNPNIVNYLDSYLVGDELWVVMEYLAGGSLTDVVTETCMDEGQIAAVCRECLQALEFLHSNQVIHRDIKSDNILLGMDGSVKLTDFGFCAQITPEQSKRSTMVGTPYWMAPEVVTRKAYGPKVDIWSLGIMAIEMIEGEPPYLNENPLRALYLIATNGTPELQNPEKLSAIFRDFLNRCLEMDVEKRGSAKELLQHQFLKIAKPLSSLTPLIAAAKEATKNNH
Chain of PAK2 (PAK65) (Q13177 whole entry): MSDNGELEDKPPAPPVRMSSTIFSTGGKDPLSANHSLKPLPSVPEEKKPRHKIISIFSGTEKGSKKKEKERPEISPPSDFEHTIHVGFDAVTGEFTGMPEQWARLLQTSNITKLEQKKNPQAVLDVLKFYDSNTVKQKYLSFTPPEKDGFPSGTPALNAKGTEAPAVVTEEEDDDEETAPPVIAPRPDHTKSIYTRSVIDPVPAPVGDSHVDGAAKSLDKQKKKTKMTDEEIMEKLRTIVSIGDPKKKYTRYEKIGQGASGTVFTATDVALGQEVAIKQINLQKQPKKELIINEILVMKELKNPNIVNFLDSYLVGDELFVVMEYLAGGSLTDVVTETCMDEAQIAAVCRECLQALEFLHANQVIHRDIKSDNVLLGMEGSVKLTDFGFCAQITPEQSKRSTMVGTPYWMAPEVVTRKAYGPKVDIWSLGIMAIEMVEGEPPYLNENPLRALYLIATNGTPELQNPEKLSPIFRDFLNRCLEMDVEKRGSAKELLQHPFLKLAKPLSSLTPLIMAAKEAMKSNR
Chain of PAK4 (O96013 whole entry): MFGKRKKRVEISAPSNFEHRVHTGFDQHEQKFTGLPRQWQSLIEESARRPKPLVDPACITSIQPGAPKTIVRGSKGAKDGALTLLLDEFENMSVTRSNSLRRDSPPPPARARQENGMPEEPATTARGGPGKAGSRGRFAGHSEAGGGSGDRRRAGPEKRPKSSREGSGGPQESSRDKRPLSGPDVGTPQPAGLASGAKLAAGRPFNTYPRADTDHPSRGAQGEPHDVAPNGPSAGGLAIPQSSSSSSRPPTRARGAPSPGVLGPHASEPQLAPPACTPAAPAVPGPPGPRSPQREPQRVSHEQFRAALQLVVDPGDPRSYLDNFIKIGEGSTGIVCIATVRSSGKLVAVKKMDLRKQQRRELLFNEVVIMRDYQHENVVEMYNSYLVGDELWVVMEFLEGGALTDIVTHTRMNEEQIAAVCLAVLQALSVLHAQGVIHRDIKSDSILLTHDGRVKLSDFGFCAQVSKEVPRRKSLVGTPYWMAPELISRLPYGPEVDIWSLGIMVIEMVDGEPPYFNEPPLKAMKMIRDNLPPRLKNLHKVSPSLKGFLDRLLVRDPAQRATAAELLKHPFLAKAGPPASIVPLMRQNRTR

Compound	IC50 [1]	IC50 [2]	IC50 [3]	IC50 [4]
CNC(=O)c1cc(-c2ccc(-c3cc4cnc(Nc5ccc(C6CCNCC6)cc5)nc4n(C)c3=O)c(Cl)c2)ccn1	50 to 500 nM	50 to 500 nM	50 to 500 nM	500 to 5000 nM
CCn1c(=O)c(-c2ccc(-c3ccccn3)s2)cc2cnc(Nc3ccc(N4CCN(C)CC4)cc3)nc21	> 5000 nM	> 5000 nM	> 5000 nM	≥ 5000 nM
CN1CCC(c2ccc(Nc3ncc4cc(-c5cc(-c6ccccn6)ccc5Cl)c(=O)n(C)c4n3)cc2)CC1	50 to 500 nM	500 to 5000 nM	50 to 500 nM	≥ 5000 nM
CCn1c(=O)c(-c2ccc(-c3nnn[nH]3)s2)cc2cnc(Nc3ccc(N4CCN(C)CC4)cc3)nc21	> 5000 nM	> 5000 nM	> 5000 nM	≥ 5000 nM
CCn1c(=O)c(-c2ccc(-c3cccnc3C)cc2Cl)cc2cnc(Nc3ccc(CCN4CCOCC4)cc3)nc21	50 to 500 nM	50 to 500 nM	50 to 500 nM	≥ 5000 nM
CCn1c(=O)c(-c2ccc(-c3cncnc3)cc2Cl)cc2cnc(Nc3ccc(N4CCN(C(C)C)CC4)cc3)nc21	< 50 nM	< 50 nM	< 50 nM	500 to 5000 nM
CCn1c(=O)c(-c2ccc(-c3cc(C(F)(F)F)ncn3)cc2Cl)cc2cnc(Nc3ccc(C4CCN(C)CC4)cc3)nc21	50 to 500 nM	50 to 500 nM	50 to 500 nM	≥ 5000 nM
CCN(CC)CCc1ccc(Nc2ncc3cc(-c4ccc(-c5noc(C)n5)cc4Cl)c(=O)n(CC)c3n2)cc1	< 50 nM	< 50 nM	< 50 nM	500 to 5000 nM
CCn1c(=O)c(-c2ccc(-c3noc(C)n3)cc2Cl)cc2cnc(Nc3ccc(C4CCNC4)c(F)c3)nc21 (centres unmarked)	< 50 nM	< 50 nM	< 50 nM	500 to 5000 nM
CCN1CCC(c2ccc(Nc3ncc4cc(-c5ccc(-c6ccnc(C)c6)cc5Cl)c(=O)n(CC)c4n3)cc2F)CC1	< 50 nM	< 50 nM	< 50 nM	500 to 5000 nM
CCn1c(=O)c(-c2ccc(-c3cccnc3)cc2Cl)cc2cnc(Nc3ccc(N4CCN(C(C)C)CC4)cc3)nc21 [drawing 655]	< 50 nM	< 50 nM	< 50 nM	50 to 500 nM
CCn1c(=O)c(-c2ccc(-c3cnc(C)o3)cc2Cl)cc2cnc(Nc3ccc(C4CCN(C)CC4)cc3)nc21	< 50 nM	50 to 500 nM	50 to 500 nM	≥ 5000 nM
CCn1c(=O)c(-c2ccc(-c3ccc(C)nc3F)cc2Cl)cc2cnc(Nc3ccc(C4CCNCC4)cc3)nc21	< 50 nM	< 50 nM	50 to 500 nM	500 to 5000 nM
CCN1CCC(c2ccc(Nc3ncc4cc(-c5ccc(-c6cnc(C)s6)cc5Cl)c(=O)n(CC)c4n3)cc2)CC1	< 50 nM	< 50 nM	50 to 500 nM	500 to 5000 nM
CCn1c(=O)c(-c2ccc(-c3cnc(C)s3)nc2)cc2cnc(Nc3ccc(C4CCN(C)CC4)cc3)nc21	500 to 5000 nM	500 to 5000 nM	500 to 5000 nM	≥ 5000 nM
CCn1c(=O)c(-c2ccc(-c3cnc(C)s3)cc2Cl)cc2cnc(Nc3ccc(C4=CCNCC4)cc3)nc21	< 50 nM	< 50 nM	< 50 nM	500 to 5000 nM
CCn1c(=O)c(-c2ccc(-c3noc(C)n3)cc2Cl)cc2cnc(Nc3ccc(C4=CCNCC4)cc3)nc21	< 50 nM	< 50 nM	< 50 nM	500 to 5000 nM
Cc1ncccc1-c1cc(Cl)c(-c2cc3cnc(Nc4ccc(C5CCN(C)CC5)cc4)nc3n(C)c2=O)cc1F	50 to 500 nM	50 to 500 nM	500 to 5000 nM	≥ 5000 nM
CC(=O)N(C)c1ccc(-c2ccc(Cl)c(-c3cc4cnc(Nc5ccc(C6CCN(C)CC6)cc5)nc4n(C)c3=O)c2)cn1	> 5000 nM	> 5000 nM	> 5000 nM	≥ 5000 nM
CN(C)CCc1ccc(Nc2ncc3cc(-c4ccc(-c5cccnc5F)cc4Cl)c(=O)n(C)c3n2)cc1	< 50 nM	< 50 nM	< 50 nM	500 to 5000 nM
CCn1c(=O)c(-c2ccc(-c3cccnc3)cc2Cl)cc2cnc(Nc3ccc(CN(C)C)cc3)nc21	< 50 nM	< 50 nM	< 50 nM	500 to 5000 nM
CCn1c(=O)c(-c2ccc(-c3ccnc(C)c3)cc2Cl)cc2cnc(Nc3ccc(C4CCN(C)CC4)c(F)c3)nc21	< 50 nM	< 50 nM	50 to 500 nM	≥ 5000 nM
CCn1c(=O)c(-c2ccc(-c3ccc(C)nc3F)cc2Cl)cc2cnc(Nc3ccc(C4CCN(C)CC4)cc3)nc21	< 50 nM	< 50 nM	50 to 500 nM	500 to 5000 nM
CCn1c(=O)c(-c2ccc(-c3cccnc3F)cc2Cl)cc2cnc(Nc3ccc(C4=CCNCC4)cc3)nc21	< 50 nM	< 50 nM	< 50 nM	50 to 500 nM
CCN1CCN(c2ccc(Nc3ncc4cc(-c5ccc(-c6cncs6)cc5Cl)c(=O)n(CC)c4n3)cc2F)CC1	< 50 nM	< 50 nM	50 to 500 nM	≥ 5000 nM
CCn1c(=O)c(-c2nc(C3CCN(C(C)=O)CC3)sc2C)cc2cnc(Nc3ccc(N4CCN(C)CC4)cc3)nc21	> 5000 nM	> 5000 nM	> 5000 nM	≥ 5000 nM
CCn1c(=O)c(-c2ccc(-c3ncccn3)cc2Cl)cc2cnc(Nc3ccc(N4CCN(C)CC4)cc3)nc21	< 50 nM	< 50 nM	< 50 nM	500 to 5000 nM
CCn1c(=O)c(-c2ccc(-c3cccc4ncccc34)cc2Cl)cc2cnc(Nc3ccc(N4CCN(C)CC4)cc3)nc21	50 to 500 nM	50 to 500 nM	50 to 500 nM	≥ 5000 nM
CCn1c(=O)c(-c2ccc(-c3ccncc3)cc2Cl)cc2cnc(Nc3ccc(N4CCN(C)CC4)cc3)nc21	< 50 nM	< 50 nM	< 50 nM	≥ 5000 nM
CCn1c(=O)c(-c2ccc(-c3ccsc3)cc2)cc2cnc(Nc3ccc(N4CCN(C)CC4)cc3)nc21	50 to 500 nM	500 to 5000 nM	50 to 500 nM	≥ 5000 nM

The remaining lines, values ahead:

IC50 [1]	IC50 [2]	IC50 [3]	IC50 [4]	Compound
< 50 nM	< 50 nM	50 to 500 nM	≥ 5000 nM	CCN1CCC(c2ccc(Nc3ncc4cc(-c5ccc(-c6ccnc(C)c6)cc5Cl)c(=O)n(CC)c4n3)cc2)CC1
< 50 nM	< 50 nM	< 50 nM	500 to 5000 nM	CCn1c(=O)c(-c2ccc(-c3noc(C)n3)cc2Cl)cc2cnc(Nc3ccc(C4CCNC4)cc3)nc21 (centres unmarked)
< 50 nM	< 50 nM	< 50 nM	500 to 5000 nM	CCn1c(=O)c(-c2ccc(-c3cccnc3)cc2Cl)cc2cnc(Nc3ccc(N4CCNCC4)cc3)nc21
< 50 nM	< 50 nM	< 50 nM	500 to 5000 nM	CCn1c(=O)c(-c2ccc(-c3noc(C)n3)cc2Cl)cc2cnc(Nc3ccc(N4CCN(C)CC4)cc3)nc21
< 50 nM	< 50 nM	< 50 nM	500 to 5000 nM	CCn1c(=O)c(-c2ccc(-c3scnc3C)cc2Cl)cc2cnc(Nc3ccc(N4CCNCC4)cc3)nc21
< 50 nM	50 to 500 nM	50 to 500 nM	≥ 5000 nM	CCn1c(=O)c(-c2ccc(-c3cccnc3C)cc2Cl)cc2cnc(Nc3ccc(C4CCN(C)CC4)c(F)c3)nc21
< 50 nM	< 50 nM	50 to 500 nM	500 to 5000 nM	CCn1c(=O)c(-c2ccc(-c3ncc(C)s3)cc2Cl)cc2cnc(Nc3ccc(N4CCN(C)CC4)cc3)nc21
< 50 nM	< 50 nM	< 50 nM	≥ 5000 nM	Cc1nc(-c2cc(Cl)c(-c3cc4cnc(Nc5ccc(C6CCN(C)CC6)cc5)nc4n(C)c3=O)cc2F)no1
< 50 nM	< 50 nM	< 50 nM	500 to 5000 nM	CCn1c(=O)c(-c2ccc(-c3ccc(C)nc3F)cc2Cl)cc2cnc(Nc3ccc(CCN(C)C)cc3)nc21
< 50 nM	50 to 500 nM	50 to 500 nM	≥ 5000 nM	CCn1c(=O)c(-c2ccc(-c3ccc(F)nc3C)cc2Cl)cc2cnc(Nc3ccc(C4CCN(C)CC4)cc3)nc21
< 50 nM	< 50 nM	< 50 nM	500 to 5000 nM	CCN1CCC(c2ccc(Nc3ncc4cc(-c5ccc(-c6cccnc6)cc5Cl)c(=O)n(CC)c4n3)cc2F)CC1
< 50 nM	< 50 nM	< 50 nM	500 to 5000 nM	CCn1c(=O)c(-c2ccc(-c3cccnc3C)cc2Cl)cc2cnc(Nc3ccc(C4=CCNCC4)cc3)nc21
< 50 nM	50 to 500 nM	50 to 500 nM	500 to 5000 nM	CCn1c(=O)c(-c2ccc(-c3ccnc(C)c3)cc2Cl)cc2cnc(Nc3ccc(C4CCNCC4)cc3)nc21
< 50 nM	< 50 nM	< 50 nM	500 to 5000 nM	CCn1c(=O)c(-c2ccc(-c3cccnc3)cc2Cl)cc2cnc(Nc3ccc(C4CCN(C)CC4)cc3)nc21
